Data taken from patent US8829030B2 (priority 2002, dated 2014).
Counter-ions that a name gives are not always drawn.

Target: recombinant HCV RNA-dependent RNA polymerase (NS5B protein) (Hepatitis C virus genotype 1b, UniProt P26663)
Test: biochemical
Design: species or system HCV-Bk strain

recombinant HCV RNA-dependent RNA polymerase (NS5B protein), sequence (P26663 2420-3010 limits assumed): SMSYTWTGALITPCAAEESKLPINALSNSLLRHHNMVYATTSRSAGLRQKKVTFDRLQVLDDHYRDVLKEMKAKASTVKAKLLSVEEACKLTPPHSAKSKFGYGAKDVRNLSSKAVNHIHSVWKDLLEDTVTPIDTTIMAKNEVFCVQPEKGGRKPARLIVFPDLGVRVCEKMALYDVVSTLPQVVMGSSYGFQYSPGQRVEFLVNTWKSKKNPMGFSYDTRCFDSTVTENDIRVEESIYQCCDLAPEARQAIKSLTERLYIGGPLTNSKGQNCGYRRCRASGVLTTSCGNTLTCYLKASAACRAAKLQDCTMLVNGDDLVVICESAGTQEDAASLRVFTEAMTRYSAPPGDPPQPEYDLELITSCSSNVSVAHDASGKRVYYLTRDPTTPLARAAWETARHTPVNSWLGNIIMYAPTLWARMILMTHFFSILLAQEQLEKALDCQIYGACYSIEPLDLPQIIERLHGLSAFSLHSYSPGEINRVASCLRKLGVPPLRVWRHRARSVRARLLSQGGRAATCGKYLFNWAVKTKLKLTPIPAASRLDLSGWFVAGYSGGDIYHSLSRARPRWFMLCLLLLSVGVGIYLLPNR

SMILES | IC50
CC1CCC(C(=O)N(Cc2ccccn2)c2cc(-c3ccccc3)sc2C(=O)O)CC1 (stereo not shown) [Compound 14, 3-[(4-methyl-cyclohexanecarbonyl)-pyridin-2-ylmethyl-amino]-5-phenyl-thiophene-2-carboxylic acid] | < 5 µM
CC1CCC(C(=O)N(c2cc(-c3ccccc3)sc2C(=O)O)C2CCN(C=O)CC2)CC1 (stereo not shown) [Compound 63, 3-[(1-formyl-piperidin-4-yl)-(4-methyl-cyclohexanecarbonyl)-amino]-5-phenyl-thiophene-2-carboxylic acid] | < 5 µM
CCC(C)C(CN=[N+]=[N-])N(C(=O)c1ccc(Cl)cc1Cl)c1cc(-c2ccccc2)sc1C(=O)O (stereo not shown) [Compound 18, 3-[(1-azidomethyl-2-methyl-butyl)-(2,4-dichloro-benzoyl)-amino]-5-phenyl-thiophene-2-carboxylic acid] | < 5 µM
CCC(C)C(C[NH3+])N(C(=O)c1ccccc1Cl)c1cc(-c2ccccc2)sc1C(=O)O (stereo not shown) [Compound 19, 2-[(2-carboxy-5-phenyl-thiophen-3-yl)-(2-chloro-benzoyl)-amino]-3-methyl-pentyl-ammonium trifluoroacetate] | > 20 µM
